Values quoted from earlier work as cited in patent publication US10925995B2, “Absorber and absorbent article using the same” (LIVEDO CORPORATION, priority 2012, dated 2021).

Conditions: in water at 25 degrees centigrade; no stage stated

acid dissociation constant pKa | Structure (SMILES)
3.45 | O=C(O)c1cccc([N+](=O)[O-])c1 [m-nitrobenzoic acid]
3.43 | O=C(O)CS [mercaptoacetic acid]
4.12 | C=CCC(=O)O [vinyl acetic acid]
4.26 | O=C(O)CCCCC(=O)O [adipic acid]
3.44 | O=C(O)c1ccc([N+](=O)[O-])cc1 [p-nitrobenzoic acid]
3.85 | O=C(O)c1cccc(I)c1 [m-iodobenzoic acid]
3.81 | O=C(O)c1cccc(Br)c1 [m-bromobenzoic acid]
4.31 | O=C(O)CCCCCC(=O)O [pimelic acid]
4.63 | CCCCCC(=O)O [hexanoic acid]
4.00 | O=C(O)c1ccc(I)cc1 [p-iodobenzoic acid]
3.23 | Nc1ccc(S(=O)(=O)O)cc1 [p-aniline sulfonic acid]
3.74 | Nc1cccc(S(=O)(=O)O)c1 [m-aniline sulfonic acid]
4.64 | CCCCC(=O)O [valeric acid]
3.26 | COC(=O)c1ccncc1 [methyl isonicotinate]
4.03 | NCCCC(=O)O [4-aminobutyric acid]
4.03 | O=C1O[C@H]([C@@H](O)CO)C(O)=C1O [L-ascorbic acid]
4.70 | O=C(O)C1CCCCC1 [cyclohexane carboxylic acid]
3.92 | O=C(O)CCCl [3-chloropropionic acid]
4.66 | CCCCCCC(=O)O [heptanoic acid]
3.12 | Nc1cccc(C(=O)O)c1 [m-aminobenzoic acid]
3.19 | O=C(O)C(O)c1ccccc1 (stereo not shown) [mandelic acid]
4.35 | COC(=O)CC(O)(CC(=O)O)C(=O)O (stereo not shown) [citric acid monomethyl ester]
4.44 | CC(=O)CCC(=O)O [levulinic acid]
3.55 | N#Cc1ccc(C(=O)O)cc1 [p-cyanobenzoic acid]
4.00 | O=C(O)c1ccc(Br)cc1 [p-bromobenzoic acid]

Structure (SMILES) | acid dissociation constant pKa
C/C=C/C(=O)O [crotonic acid] | 4.69
O=C(O)Cc1ccccc1 [phenylacetic acid] | 4.10
O=C(O)/C=C\c1ccccc1 [cinnamic acid (cis)] | 3.88
O=C(O)CCCC(=O)O [glutaric acid] | 4.13
COc1ccccc1C(=O)O [o-anisic acid] | 4.09

Same assay, conditions: in water at 25 degrees centigrade; second stage

acid dissociation constant pKa, second stage | Structure (SMILES)
4.85 | Nc1ccc(C(=O)O)cc1 [p-aminobenzoic acid]
4.75 | O=C(O)c1ccc2ccccc2n1 [quinaldic acid]
4.87 | O=C(O)c1ccncc1 [isonicotinic acid]
4.35 | O=C(O)CC(O)(CC(=O)O)C(=O)O [citric acid]
4.10 | O=C(O)/C=C/C(=O)O [fumaric acid]

Structure (SMILES) | acid dissociation constant pKa, second stage
O=C(O)C(O)C(O)C(=O)O (stereo not drawn) [d-tartaric acid] | 3.95
Nc1ccccc1C(=O)O [o-aminobenzoic acid] | 4.95
O=C(O)c1ccccc1C(=O)O [o-benzenedicarboxylic acid] | 4.93
O=C(O)[C@H](O)[C@@H](O)C(=O)O [(R,R)-tartaric acid] | 4.44

Same assay, conditions: in water at 25 degrees centigrade; third stage

acid dissociation constant pKa, third stage | Structure (SMILES)
4.68 | O=C(O)c1cccc(C(=O)O)n1 [2,6-pyridinedicarboxylic acid]
